Calls of active or inactive are those of the source. How the calls were made is not given here.
Test system: GENE-TOX genotoxicity assays, various organisms and cells
Test: GENE-TOX mutagenicity studies
Conditions: for call: Assay Type: In vivo carcinogenicity studies
[1] = Species/Cell Type: Salmonella typhimurium (one or more of the five standard strains: TA98, TA100, TA1535, TA1537, and TA1538), Assay Type: Histidine reverse gene mutation, Ames assay, Assay Code: SAL+, Evaluation Type: Evaluation A (Pre-1980)
[2] = Species/Cell Type: Nonhuman, Assay Code: CCGT, Evaluation Type: Evaluation A (Pre-1980)
[3] = Species/Cell Type: Drosophila melanogaster, Assay Type: Sex-linked recessive lethal gene mutation, Assay Code: SRL+, Evaluation Type: Evaluation A (Pre-1980)
[4] = Species/Cell Type: Chinese hamster lung (V79) cells, Assay Type: Forward gene mutation at the HPRT or ouabain locus, Assay Code: V79+, Evaluation Type: Evaluation A (Pre-1980)
[5] = Species/Cell Type: Escherichia coli polA (W3119 vs P3478), Assay Type: Rec-assay, DNA effects (bacterial DNA repair), Assay Code: RE1T, Evaluation Type: Evaluation A (Pre-1980)

Question: For O=[N+]([O-])c1ccc(N2CCN(Cc3ccccc3)CC2)c2c1no[n+]2[O-], which mutagenic call [1] is on record?
Answer: The mutagenic call was “active; positive”.

Question: For CC(C)Nc1cccc2c1C(=O)c1ccccc1C2=O, which mutagenic call (Species/Cell Type: Salmonella typhimurium (one or more of the five standard strains: TA98, TA100, TA1535, TA1537, and TA1538), Assay Type: Histidine reverse gene mutation, Ames assay, Assay Code: SAL+*, Activation: With metabolic activation, Evaluation Type: Evaluation A (Pre-1980)) is on record?
Answer: The mutagenic call was “active; positive”.

Question: Which mutagenic call (Species/Cell Type: Mammalian polychromatic erythrocytes, Assay Type: Micronucleus test, chromosome aberrations, Assay Code: MNT+U, Dose Response: Unconfirmed positive response, Evaluation Type: Evaluation B (Post-1980)) does the source give for O=c1c(O)c(-c2ccccc2)oc2cc(O)cc(O)c12 here?
Answer: The mutagenic call was “active; positive”.

Question: And the mutagenic call (Species/Cell Type: Nonhuman, Assay Type: Sister-chromatid exchange (SCE) in vitro, Assay Code: SC2+*, Activation: With metabolic activation, Evaluation Type: Evaluation B (Post-1980))?
Answer: Its mutagenic call is “active; positive”.

Question: Which mutagenic call (Species/Cell Type: Aspergillus nidulans, Assay Type: Aneuploidy, chromosome aberrations, Assay Code: ASN+, Evaluation Type: Evaluation A (Pre-1980)) does the source give for C[C@@H]1[C@H](O)[C@@H](C)/C=C/C=C/C=C/C=C/C=C/C=C/C=C/[C@H](O[C@@H]2O[C@H](C)[C@@H](O)[C@H](N)[C@@H]2O)C[C@@H]2O[C@](O)(C[C@@H](O)C[C@@H](O)[C@H](O)CC[C@@H](O)C[C@@H](O)CC(=O)O[C@H]1C)C[C@H](O)[C@H]2C(=O)O here?
Answer: The mutagenic call was “active; positive”.

Question: With Cc1c2ccncc2c(C)c2c1[nH]c1ccc(O)cc12 as the compound, how does the mutagenic call (Species/Cell Type: Chinese hamster ovary (CHO) cells, Assay Type: Forward gene mutation at the HPRT locus, Assay Code: CHOT, Evaluation Type: Evaluation B (Post-1980)) read?
Answer: Its mutagenic call is “no conclusion”.

Question: What does the source list for Cc1c2ccccc2cc2c3c(ccc12)C=C[C@@H](O)[C@@H]3O?
Answer: mutagenic call (Species/Cell Type: Mouse prostate cells, Assay Type: Cell transformation, Assay Code: CTM+, Evaluation Type: Evaluation A (Pre-1980)): active; positive; call [2]: no conclusion; mutagenic call (Species/Cell Type: Nonhuman, Assay Type: Sister-chromatid exchange (SCE) in vitro, Assay Code: SC2+, Evaluation Type: Evaluation A (Pre-1980)): active; positive

Question: CNc1nncc2ccccc12 was tested. Which mutagenic call (Species/Cell Type: Human, Assay Type: Sister-chromatid exchange (SCE) in vitro, Assay Code: SC1+D, Dose Response: With dose response, Evaluation Type: Evaluation B (Post-1980)) did it give?
Answer: The mutagenic call was “active; positive”.

Question: And the mutagenic call (Species/Cell Type: Nonhuman, Assay Type: Sister-chromatid exchange (SCE) in vivo, Assay Code: SC3+, Evaluation Type: Evaluation B (Post-1980))?
Answer: Its mutagenic call is “active; positive”.

Question: With C=CCNC(=O)OC1(Sc2ccccc2)C(=O)c2ccccc2C1=O as the compound, how does the mutagenic call (Species/Cell Type: Salmonella typhimurium, Assay Type: Forward and reverse gene mutation, host-mediated assay, Assay Code: HMAT, Evaluation Type: Evaluation A (Pre-1980)) read?
Answer: Its mutagenic call is “no conclusion”.

Question: With CCC(C)c1ccccc1OC(=O)NC (centres undefined) as the compound, how does the mutagenic call (Species/Cell Type: Bacillus subtilis (H17 vs M45T), Assay Type: Rec-assay, spot test, DNA effects (bacterial DNA repair), Assay Code: REX-, Evaluation Type: Evaluation A (Pre-1980)) read?
Answer: Its mutagenic call is “inactive; negative”.

Question: And the mutagenic call (Species/Cell Type: Escherichia coli WP2, Assay Type: Tryptophan reverse gene mutation, Assay Code: WP2-, Evaluation Type: Evaluation A (Pre-1980))?
Answer: The mutagenic call was “inactive; negative”.

Question: For CS(=O)(=O)OCCCOS(C)(=O)=O, which mutagenic call [3] is on record?
Answer: The mutagenic call was “active; positive”.

Question: And the mutagenic call (Species/Cell Type: Rat, Sex: Male, Assay Type: Sperm morphology, Assay Code: SPA+, Evaluation Type: Evaluation A (Pre-1980))?
Answer: The mutagenic call was “active; positive”.

Question: How did the mutagenic call [1] turn out when Nc1nc(-c2ccc([N+](=O)[O-])s2)cs1 was run?
Answer: The mutagenic call was “active; positive”.

Question: For C[C@@H]1O[C@H]1P(=O)(O)O, which mutagenic call (Species/Cell Type: Mammalian polychromatic erythrocytes, Assay Type: Micronucleus test, chromosome aberrations, Assay Code: MNTT, Evaluation Type: Evaluation B (Post-1980)) is on record?
Answer: Its mutagenic call is “no conclusion”.

Question: Which mutagenic call (Species/Cell Type: Arabidopsis species, Assay Type: Gene mutation, Assay Code: ARMT, Evaluation Type: Evaluation A (Pre-1980)) does the source give for O=c1[nH]c(=O)n([C@H]2C[C@H](O)[C@@H](CO)O2)cc1Br here?
Answer: The mutagenic call was “no conclusion”.

Question: And the mutagenic call [4]?
Answer: Its mutagenic call is “active; positive”.

Question: What about the mutagenic call (Species/Cell Type: Chinese hamster ovary (CHO) cells, Assay Type: Forward gene mutation at the HPRT locus, Assay Code: CHO+, Evaluation Type: Evaluation B (Post-1980)) of the same compound?
Answer: Its mutagenic call is “active; positive”.

Question: And the mutagenic call [3]?
Answer: Its mutagenic call is “active; positive”.

Question: And the mutagenic call (Species/Cell Type: Drosophila melanogaster, Sex: Male, Assay Type: Heritable translocation test, chromosome aberrations, Assay Code: DHTT, Evaluation Type: Evaluation A (Pre-1980))?
Answer: Its mutagenic call is “no conclusion”.

Question: And the mutagenic call [5]?
Answer: The mutagenic call was “no conclusion”.

Question: And the mutagenic call (Species/Cell Type: Human diploid fibroblasts, Assay Type: Unscheduled DNA synthesis (UDS) in vitro, DNA effects, Assay Code: UDH-, Evaluation Type: Evaluation A (Pre-1980))?
Answer: The mutagenic call was “inactive; negative”.

Question: And the mutagenic call (Species/Cell Type: Human embryo lung fibroblasts (WI-38 cells), Assay Type: Sister-chromatid exchange (SCE) in vitro, Assay Code: SCW+D, Dose Response: With dose response, Evaluation Type: Evaluation A (Pre-1980))?
Answer: Its mutagenic call is “active; positive”.

Question: What about the mutagenic call (Species/Cell Type: Human embryo lung fibroblasts (WI-38 cells), Assay Type: Sister-chromatid exchange (SCE) in vitro, Assay Code: SCW+D, Dose Response: With dose response, Evaluation Type: Evaluation B (Post-1980)) of the same compound?
Answer: Its mutagenic call is “active; positive”.

Question: And the mutagenic call (Species/Cell Type: Human lymphocytes, Assay Type: Micronucleus test in vitro, chromosome aberrations, Assay Code: MN7+, Evaluation Type: Evaluation A (Pre-1980))?
Answer: The mutagenic call was “active; positive”.

Question: And the mutagenic call (Species/Cell Type: Human lymphocytes, Assay Type: Sister-chromatid exchange (SCE) in vitro, Assay Code: SCL+D, Dose Response: With dose response, Evaluation Type: Evaluation A (Pre-1980))?
Answer: Its mutagenic call is “active; positive”.

Question: What about the mutagenic call (Species/Cell Type: Human lymphocytes, Assay Type: Sister-chromatid exchange (SCE) in vitro, Assay Code: SCLT, Evaluation Type: Evaluation B (Post-1980)) of the same compound?
Answer: The mutagenic call was “no conclusion”.

Question: And the mutagenic call (Species/Cell Type: Human, Assay Type: Sister-chromatid exchange (SCE) in vitro, Assay Code: SC1+D, Dose Response: With dose response, Evaluation Type: Evaluation A (Pre-1980))?
Answer: Its mutagenic call is “active; positive”.

Question: What about the mutagenic call (Species/Cell Type: Human, Assay Type: Sister-chromatid exchange (SCE) in vitro, Assay Code: SC1T, Evaluation Type: Evaluation B (Post-1980)) of the same compound?
Answer: The mutagenic call was “no conclusion”.

Question: And the mutagenic call (Species/Cell Type: Mammalian polychromatic erythrocytes, Assay Type: Micronucleus test, chromosome aberrations, Assay Code: MNT+, Evaluation Type: Evaluation A (Pre-1980))?
Answer: The mutagenic call was “active; positive”.

Question: What about the mutagenic call (Species/Cell Type: Mouse (C3H/10T1/2) cells, Assay Type: Cell transformation, Assay Code: CTH-, Evaluation Type: Evaluation A (Pre-1980)) of the same compound?
Answer: Its mutagenic call is “inactive; negative”.

Question: What about the mutagenic call (Species/Cell Type: Mouse, Sex: Male, Assay Type: Sperm morphology, Assay Code: SPI+, Evaluation Type: Evaluation A (Pre-1980)) of the same compound?
Answer: The mutagenic call was “active; positive”.

Question: What about the call [2] of the same compound?
Answer: The call was “no conclusion”.

Question: And the mutagenic call (Species/Cell Type: Nonhuman, Assay Type: Sister-chromatid exchange (SCE) in vitro, Assay Code: SC2+D, Dose Response: With dose response, Evaluation Type: Evaluation A (Pre-1980))?
Answer: Its mutagenic call is “active; positive”.

Question: And the mutagenic call (Species/Cell Type: Nonhuman, Assay Type: Sister-chromatid exchange (SCE) in vitro, Assay Code: SC2+D, Dose Response: With dose response, Evaluation Type: Evaluation B (Post-1980))?
Answer: Its mutagenic call is “active; positive”.

Question: And the mutagenic call (Species/Cell Type: Nonhuman, Assay Type: Sister-chromatid exchange (SCE) in vivo, Assay Code: SC3+D, Dose Response: With dose response, Evaluation Type: Evaluation A (Pre-1980))?
Answer: Its mutagenic call is “active; positive”.

Question: And the mutagenic call (Species/Cell Type: Nonhuman, Assay Type: Sister-chromatid exchange (SCE) in vivo, Assay Code: SC3+D, Dose Response: With dose response, Evaluation Type: Evaluation B (Post-1980))?
Answer: Its mutagenic call is “active; positive”.

Question: And the mutagenic call (Species/Cell Type: Saccharomyces cerevisiae, Assay Type: Mitotic recombination or gene conversion, Assay Code: YEH-, Evaluation Type: Evaluation A (Pre-1980))?
Answer: Its mutagenic call is “inactive; negative”.

Question: What about the mutagenic call (Species/Cell Type: Syrian hamster embryo (SA7/SHE) cells, Assay Type: Cell transformation, viral enhanced, Assay Code: CT7+, Evaluation Type: Evaluation A (Pre-1980)) of the same compound?
Answer: Its mutagenic call is “active; positive”.

Question: What about the mutagenic call (Species/Cell Type: Syrian hamster embryo (SHE) cells, Assay Type: Cell transformation, clonal assay, Assay Code: CTCT, Evaluation Type: Evaluation A (Pre-1980)) of the same compound?
Answer: Its mutagenic call is “no conclusion”.

Question: How did the call (Species/Cell Type: Nonhuman, Assay Code: CCG-, Evaluation Type: Evaluation A (Pre-1980)) turn out when COC(=O)c1ccc(C(=O)OC)cc1 was run?
Answer: The call was “inactive; negative”.

Question: And the mutagenic call (Species/Cell Type: Syrian hamster embryo (SA7/SHE) cells, Assay Type: Cell transformation, viral enhanced, Assay Code: CT7-, Evaluation Type: Evaluation A (Pre-1980))?
Answer: The mutagenic call was “inactive; negative”.

Question: Which results are given for Clc1ccc(C(c2ccc(Cl)cc2)C(Cl)(Cl)Cl)cc1?
Answer: mutagenic call [4]: active; positive; mutagenic call (Species/Cell Type: Drosophila melanogaster, Assay Type: Aneuploidy, partial sex chromosome loss, chromosome aberrations, Assay Code: DAP+M, Evaluation Type: Evaluation A (Pre-1980)): active; positive; mutagenic call (Species/Cell Type: Drosophila melanogaster, Assay Type: Aneuploidy, sex chromosome gain, chromosome aberrations, Assay Code: DAGT, Evaluation Type: Evaluation A (Pre-1980)): no conclusion; mutagenic call (Species/Cell Type: Drosophila melanogaster, Assay Type: Aneuploidy, whole sex chromosome loss, chromosome aberrations, Assay Code: DACT, Evaluation Type: Evaluation A (Pre-1980)): no conclusion; mutagenic call (Species/Cell Type: Drosophila melanogaster, Assay Type: Sex-linked recessive lethal gene mutation, Assay Code: SRL-, Evaluation Type: Evaluation A (Pre-1980)): inactive; negative; mutagenic call [5]: no conclusion; mutagenic call (Species/Cell Type: Mammalian polychromatic erythrocytes, Assay Type: Micronucleus test, chromosome aberrations, Assay Code: MNTT, Evaluation Type: Evaluation A (Pre-1980)): no conclusion; mutagenic call (Species/Cell Type: Mouse, Sex: Male, Assay Type: Sperm morphology, Assay Code: SPI-, Evaluation Type: Evaluation A (Pre-1980)): inactive; negative; mutagenic call (Species/Cell Type: Nonhuman, Assay Type: Chromosome aberrations in vitro, Assay Code: CY&+, Evaluation Type: Evaluation A (Pre-1980)): active; positive; call (Species/Cell Type: Nonhuman, Assay Code: CCG+, Evaluation Type: Evaluation A (Pre-1980)): active; positive; mutagenic call (Species/Cell Type: Rodents, Sex: Male, Assay Type: Dominant lethal test, Assay Code: DLTT, Evaluation Type: Evaluation A (Pre-1980)): no conclusion; mutagenic call (Species/Cell Type: Saccharomyces cerevisiae, Assay Type: Mitotic recombination or gene conversion, Assay Code: YEH-*, Activation: With metabolic activation, Evaluation Type: Evaluation A (Pre-1980)): inactive; negative; mutagenic call (Species/Cell Type: Salmonella typhimurium (one or more of the five standard strains: TA98, TA100, TA1535, TA1537, and TA1538), Assay Type: Histidine reverse gene mutation, Ames assay, Assay Code: SAL-, Evaluation Type: Evaluation A (Pre-1980)): inactive; negative; mutagenic call (Species/Cell Type: Salmonella typhimurium, Serratia marcesens, Assay Type: Forward and reverse gene mutation, host-mediated assay, Assay Code: HM2-, Evaluation Type: Evaluation A (Pre-1980)): inactive; negative
